# Data: ChEMBL document CHEMBL1201862, “PubChem BioAssay data set” (2004)
#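 Where inhibition never reached the appropriate level, the endpoint shown equals the highest concentration tested. Otherwise, values were interpolated linearly from a five-concentration, 48-hour dose response in 96-well plates. GI50 = concentration required for 50% inhibition of growth.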 Active and inactive are the calls of the source. Cut-off read from the data, not from the text of the source: active = GI50 up to about 1.1 µM and inactive = higher.
# How the values were obtained:
# Assay in all cases: NCI anticancer screen, dose series, 48 h
# [1] = test system: BT-549
# [2] = test system: MCF7
# [3] = test system: OVCAR-4
# [4] = test system: ACHN
# [5] = test system: HOP-62
# [6] = test system: OVCAR-3
# [7] = test system: RXF 393
# [8] = test system: LOX IMVI
# [9] = test system: NCI-H522
# [10] = test system: Malme-3M
# [11] = test system: PC-3
# [12] = test system: SNB-19
# [13] = test system: CAKI-1
# [14] = test system: NCI-H460
# [15] = test system: K562
# [16] = test system: DU-145
# [17] = test system: EKVX
# [18] = test system: 786-0
# [19] = test system: KM12
# [20] = test system: MDA-MB-231
# [21] = test system: A498
# [22] = test system: MDA-MB-435
# [23] = test system: UACC-257
# [24] = test system: SR
# [25] = test system: SF-268
# [26] = test system: MDA-N
# [27] = test system: CCRF-CEM
# [28] = test system: SK-MEL-5
# [29] = test system: NCI-H23
# [30] = test system: UO-31
# [31] = test system: Hs-578T
# [32] = test system: SK-MEL-2
# [33] = test system: NCI/ADR-RES
# [34] = test system: OVCAR-5
# [35] = test system: SF-539
# [36] = test system: SW-620
# [37] = test system: UACC-62
# [38] = test system: RPMI-8226
# [39] = test system: HCT-15
# [40] = test system: TK-10
# [41] = test system: SN12C
# [42] = test system: SK-MEL-28
# [43] = test system: MOLT-4
# [44] = test system: HCC 2998
# [45] = test system: T47D
# [46] = test system: COLO 205
# [47] = test system: OVCAR-8
# [48] = test system: HCT-116
# [49] = test system: M14
# [50] = test system: A549
# [51] = test system: SNB-75
# [52] = test system: HT-29
# [53] = test system: HOP-92
# [54] = test system: IGROV-1
# [55] = test system: SF-295
# [56] = test system: U-251
# [57] = test system: SK-OV-3
structure (smiles),measurement,setting,value
Oc1ccc2ccccc2c1/C=N/Cc1c(O)ccc2ccccc12,GI50,[1],45.3 µM (inactive)
same,GI50,[2],48.2 µM (inactive)
same,GI50,[3],> 100 µM (inactive)
same,GI50,[4],28.4 µM (inactive)
same,GI50,[5],> 100 µM (inactive)
same,GI50,[6],18.4 µM (inactive)
same,GI50,[7],1.39 µM (inactive)
same,GI50,[8],48.1 µM (inactive)
same,GI50,[9],6.53 µM (inactive)
same,GI50,[10],43.2 µM (inactive)
same,GI50,[11],38.7 µM (inactive)
same,GI50,[12],36.9 µM (inactive)
same,GI50,[13],87.7 µM (inactive)
same,GI50,[14],28.1 µM (inactive)
same,GI50,[15],18.5 µM (inactive)
same,GI50,[16],41.4 µM (inactive)
same,GI50,[17],7.71 µM (inactive)
same,GI50,[18],47.2 µM (inactive)
same,GI50,[19],55.2 µM (inactive)
same,GI50,[20],82.4 µM (inactive)
same,GI50,[21],26.1 µM (inactive)
same,GI50,[22],77.6 µM (inactive)
same,GI50,[23],81.5 µM (inactive)
same,GI50,[24],27.2 µM (inactive)
same,GI50,[25],37.2 µM (inactive)
same,GI50,[26],51.1 µM (inactive)
same,GI50,[27],6.25 µM (inactive)
same,GI50,[28],71.9 µM (inactive)
same,GI50,[29],42.7 µM (inactive)
same,GI50,[30],28.7 µM (inactive)
same,GI50,[31],69 µM (inactive)
same,GI50,[32],71.8 µM (inactive)
same,GI50,[33],33.8 µM (inactive)
same,GI50,[34],> 100 µM (inactive)
same,GI50,[35],31.6 µM (inactive)
same,GI50,[36],52.4 µM (inactive)
same,GI50,[37],45.1 µM (inactive)
same,GI50,[38],12.6 µM (inactive)
same,GI50,[39],29.4 µM
same,GI50,[40],70.5 µM (inactive)
same,GI50,[41],32.8 µM (inactive)
same,GI50,[42],> 100 µM (inactive)
same,GI50,[43],13.2 µM (inactive)
same,GI50,[44],42.2 µM (inactive)
same,GI50,[45],19.1 µM (inactive)
same,GI50,[46],> 100 µM (inactive)
same,GI50,[47],34.5 µM (inactive)
same,GI50,[48],28.3 µM (inactive)
same,GI50,[49],44.5 µM (inactive)
same,GI50,[50],86.7 µM (inactive)
same,GI50,[51],37.9 µM (inactive)
same,GI50,[52],> 100 µM (inactive)
same,GI50,[53],26.4 µM (inactive)
same,GI50,[54],35.6 µM (inactive)
same,GI50,[55],39.5 µM (inactive)
same,GI50,[56],29 µM (inactive)
same,GI50,[57],> 100 µM (inactive)
